Assay results published in patent US9738642B2, “Triazolopyridine ether derivatives and their use in neurological and pyschiatric disorders” (BRISTOL-MYERS SQUIBB COMPANY, priority 2013, dated 2017).
Counter-ions that a name gives are not always drawn.

Target: T1, human mGluR2 (Homo sapiens, UniProt Q14416)
T1 construct: expressed in transfected cells; host or cells: HEK293 clonal line
Assay: mGluR2 cAMP assay
Type: cell-based
Details: clonally expressed human mGluR2 in HEK293; 1 μM forskolin, 1 μM LY-341495, 30 min; CISBIO cAMP kit; read-out: EC50 (nM), activity in mGluR2 cAMP assay
Method: On the day of the assay, media was removed, cells washed with PBS, cells harvested and pelleted by centrifugation. Cell pellets were resuspended in stimulation buffer without forskolin and counted. […] A standard curve was created using a top concentration of cAMP of 1 μM in the stimulation buffer, 1:3 dilutions over 14 points in the absence of cells. […] In house software converted the fluorescence value ratios to units of cAMP concentration, which is then used to calculate % inhibition for each test compound. MGluR2 cAMP Assay Materials and Methods. […] Buffer without forskolin was used as a negative control. Solutions of D2 and cryptate detection reagents from the CISBIO dynamic cAMP kit (62AM4PEJ) were diluted 1:40 in lysis buffer. Lysis buffer consisted of 50 mM Phosphate Buffer pH 7.0, 800 mM Potassium Fluoride, 0.2% BSA, and 1.0% Triton. Assay reaction was terminated by addition of detection reagents in lysis buffer. One hour later, plates were read on a PE Viewlux. Data was extracted, and concentration response curves generated by fitting the data to a standard 4 parameter logistic equation from which EC50 values were determined.

T1 sequence (Q14416 19-872): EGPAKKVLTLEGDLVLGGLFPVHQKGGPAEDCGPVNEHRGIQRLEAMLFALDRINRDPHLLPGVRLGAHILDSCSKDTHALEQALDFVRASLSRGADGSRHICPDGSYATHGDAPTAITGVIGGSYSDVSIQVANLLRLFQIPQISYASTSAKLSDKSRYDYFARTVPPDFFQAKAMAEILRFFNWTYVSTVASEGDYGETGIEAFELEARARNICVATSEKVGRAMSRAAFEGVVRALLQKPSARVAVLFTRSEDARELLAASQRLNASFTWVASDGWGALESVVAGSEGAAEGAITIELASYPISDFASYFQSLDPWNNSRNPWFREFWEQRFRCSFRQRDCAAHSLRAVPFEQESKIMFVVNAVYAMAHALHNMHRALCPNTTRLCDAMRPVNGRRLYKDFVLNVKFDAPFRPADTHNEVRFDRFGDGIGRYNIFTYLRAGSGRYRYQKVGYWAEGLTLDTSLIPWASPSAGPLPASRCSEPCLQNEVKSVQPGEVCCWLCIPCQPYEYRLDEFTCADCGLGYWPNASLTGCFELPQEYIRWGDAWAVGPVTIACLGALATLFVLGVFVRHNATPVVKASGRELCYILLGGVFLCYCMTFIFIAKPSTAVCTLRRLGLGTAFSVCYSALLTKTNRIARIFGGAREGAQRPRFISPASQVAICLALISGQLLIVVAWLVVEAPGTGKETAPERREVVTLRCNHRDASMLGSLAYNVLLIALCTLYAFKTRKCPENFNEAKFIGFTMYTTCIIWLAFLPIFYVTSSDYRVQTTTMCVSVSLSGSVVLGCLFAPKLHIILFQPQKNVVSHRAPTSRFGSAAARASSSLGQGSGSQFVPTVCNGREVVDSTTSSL

| EC50 [nM] | SMILES |
| --- | --- |
| 1.6 | Fc1ccc([C@H]2C[C@@H]2COc2ccn3c(CC(F)(F)F)nnc3c2C(F)(F)F)cc1 [Example 52, 7-(((1S,2S)-2-(4-Fluorophenyl)cyclopropyl)methoxy)-3-(2,2,2-trifluoroethyl)-8-(trifluoromethyl)-[1,2,4]triazolo[4,3-a]pyridine] |
| 0.2 | COc1cccc(F)c1[C@H]1C[C@@H]1COc1ccn2c(CC3CC3)nnc2c1C(F)(F)F (single isomer, unassigned) [Example 35] |
| 0.2 | COc1cccc(F)c1[C@@H]1C[C@H]1COc1ccn2c(CC3CC3)nnc2c1C(F)(F)F (single isomer, unassigned) [Example 36] |
| 2.2 | FC(F)(F)Oc1ccccc1[C@H]1C[C@@H]1COc1ccn2c(CC3CC3)nnc2c1C(F)(F)F (single isomer, unassigned) [Example 41] |
| 1.9 | Fc1ccc(F)c([C@H]2C[C@@H]2COc2ccn3c(CC4CC4)nnc3c2C(F)(F)F)c1 (racemic) [Example 44, (±)-3-(Cyclopropylmethyl)-7-(((1S,2S)-2-(2,5-difluorophenyl)cyclopropyl)methoxy)-8-(trifluoromethyl)-[1,2,4]triazolo[4,3-a]pyridine] |
| 2.6 | Fc1ccc(C2CC2COc2ccn3c(CC4CC4)nnc3c2C(F)(F)F)cc1 (single isomer, unassigned) [Example 78] |
| 1.4 | COc1ccccc1[C@@H]1C[C@H]1COc1ccn2c(CC3CC3)nnc2c1C(F)(F)F (single isomer, unassigned) [Example 40] |
| 0.6 | COc1ccccc1[C@H]1C[C@@H]1COc1ccn2c(CC3CC3)nnc2c1C(F)(F)F (single isomer, unassigned) [Example 39] |
| 25 | CO[C@](C)(COc1ccn2c(CC3CC3)nnc2c1C(F)(F)F)c1ccc(F)cc1 (single isomer, unassigned) [Example 25] |
| 11 | N#Cc1c(OC[C@H]2C[C@@H]2c2ccc(F)cc2)ccn2c(CC3CC3)nnc12 [Example 3, 3-(Cyclopropylmethyl)-7-(((1S,2S)-2-(4-fluorophenyl)cyclopropyl)methoxy)-[1,2,4]triazolo[4,3-a]pyridine-8-carbonitrile] |
| 16 | Fc1ccc(C2(COc3ccn4c(CC5CC5)nnc4c3C(F)(F)F)CC2)cc1 [Example 30, 3-(Cyclopropylmethyl)-7-((1-(4-fluorophenyl)cyclopropyl)methoxy)-8-(trifluoromethyl)-[1,2,4]triazolo[4,3-a]pyridine] |

Second part, the compound before the results:

| SMILES | EC50 [nM] |
| --- | --- |
| FC(F)(F)c1c(OC[C@H]2C[C@@H]2c2ccc(Cl)cc2)ccn2c(CC3CC3)nnc12 [Example 34, 7-(((1S,2S)-2-(4-Chlorophenyl)cyclopropyl)methoxy)-3-(cyclopropylmethyl)-8-(trifluoromethyl)-[1,2,4]triazolo[4,3-a]pyridine] | 1.6 |
| CO[C@]1(c2ccc(F)cc2)CC[C@H](Oc2ccn3c([C@@H]4C[C@H]4F)nnc3c2C(F)(F)F)CC1 (relative stereo) [Example 89, (±)-rel-3-((1S,2R)-2-Fluorocyclopropyl)-7-((1s,4s)-4-(4-fluorophenyl)-4-methoxycyclohexyloxy)-8-(trifluoromethyl)-[1,2,4]triazolo[4,3-a]pyridine] | 41 |
| N#C[C@]1(c2cccc(F)c2)C[C@H](Oc2ccn3c(CC4CC4)nnc3c2C(F)(F)F)C1 [Example 46, (1s,3s)-3-(3-(Cyclopropylmethyl)-8-(trifluoromethyl)-[1,2,4]triazolo[4,3-a]pyridin-7-yloxy)-1-(3-fluorophenyl)cyclobutanecarbonitrile] | 0.5 |
| CC(COc1ccn2c(CC3CC3)nnc2c1C(F)(F)F)c1c(F)cccc1Cl (racemic) [Example 5, 7-(2-(2-Chloro-6-fluorophenyl)propoxy)-3-(cyclopropylmethyl)-8-(trifluoromethyl)-[1,2,4]triazolo[4,3-a]pyridine] | 1 |
| Fc1ccccc1COc1ccn2c(CC3CC3)nnc2c1Cl [Example 68, 8-Chloro-3-(cyclopropylmethyl)-7-(2-fluorobenzyloxy)-[1,2,4]triazolo[4,3-a]pyridine] | 68 |
| COC1(c2ccc(F)cc2)CCC(Oc2ccn3c([C@H]4C[C@@H]4F)nnc3c2C(F)(F)F)CC1 (stereo partly drawn) [Example 90, 3-((1R,2S)-2-Fluorocyclopropyl)-7-((1s,4s)-4-(4-fluorophenyl)-4-methoxycyclohexyloxy)-8-(trifluoromethyl)-[1,2,4]triazolo[4,3-a]pyridine] | 19 |
| CCOCc1nnc2c(C(F)(F)F)c(OCC(C)(C)Oc3ccc(Cl)cc3)ccn12 [Example 18, 7-(2-(4-Chlorophenoxy)-2-methylpropoxy)-3-(ethoxymethyl)-8-(trifluoromethyl)-[1,2,4]triazolo[4,3-a]pyridine] | 5.9 |
| CO[C@]1(c2ccc(F)cc2)CC[C@H](Oc2ccn3c(C4CC4(F)F)nnc3c2C(F)(F)F)CC1 (mixture of isomers) [Example 86, (±)-3-(2,2-Difluorocyclopropyl)-7-((1s,4s)-4-(4-fluorophenyl)-4-methoxycyclohexyloxy)-8-(trifluoromethyl)-[1,2,4]triazolo[4,3-a]pyridine] | 6.9 |
| Clc1ccc(COc2ccn3c(CC4CC4)nnc3c2Cl)cc1Cl [Example 69, 8-Chloro-3-(cyclopropylmethyl)-7-(3,4-dichlorobenzyloxy)-[1,2,4]triazolo[4,3-a]pyridine] | 32 |
| CO[C@]1(c2ccc(F)c(F)c2)CC[C@H](Oc2ccn3c(CC4CC4)nnc3c2C(F)(F)F)CC1 [Example 28, 3-(Cyclopropylmethyl)-7-((1s,4s)-4-(3,4-difluorophenyl)-4-methoxycyclohexyloxy)-8-(trifluoromethyl)-[1,2,4]triazolo[4,3-a]pyridine] | 0.7 |
| CC(C)(COc1ccn2c(CC3CC3)nnc2c1C(F)(F)F)Oc1ccc(Cl)cc1 [Example 13, 7-(2-(4-Chlorophenoxy)-2-methylpropoxy)-3-(cyclopropylmethyl)-8-(trifluoromethyl)-[1,2,4]triazolo[4,3-a]pyridine] | 13 |
| N#C[C@]1(c2ccc(F)cc2)CC[C@H](Oc2ccn3c(CC4CC4)nnc3c2C(F)(F)F)CC1 [Example 17, (1s,4s)-4-(3-(Cyclopropylmethyl)-8-(trifluoromethyl)-[1,2,4]triazolo[4,3-a]pyridin-7-yloxy)-1-(4-fluorophenyl)cyclohexanecarbonitrile] | 1.4 |
| COc1cccc(COc2ccn3c(CC4CC4)nnc3c2Cl)c1 [Example 61, 8-Chloro-3-(cyclopropylmethyl)-7-(3-methoxybenzyloxy)-[1,2,4]triazolo[4,3-a]pyridine] | 40 |
| FC(F)(F)c1c(OCC2(c3cc(Cl)cc(Cl)c3)CC2)ccn2c(CC3CC3)nnc12 [Example 56, 3-(Cyclopropylmethyl)-7-((1-(3,5-dichlorophenyl)cyclopropyl)methoxy)-8-(trifluoromethyl)-[1,2,4]triazolo[4,3-a]pyridine] | 22 |
| Clc1c(OCCOc2ccccc2)ccn2c(CC3CC3)nnc12 [Example 63, 8-Chloro-3-(cyclopropylmethyl)-7-(2-phenoxyethoxy)-[1,2,4]triazolo[4,3-a]pyridine] | 100 |
| O[C@]1(c2ccc(F)cc2)CC[C@H](Oc2ccn3c(CC4CC4)nnc3c2C(F)(F)F)CC1 [Example 95, (1s,4s)-4-(3-(Cyclopropylmethyl)-8-(trifluoromethyl)-[1,2,4]triazolo[4,3-a]pyridin-7-yloxy)-1-(4-fluorophenyl)cyclohexanol, TFA salt] | 1 |
| Fc1cccc(Cl)c1CCOc1ccn2c(CC3CC3)nnc2c1C(F)(F)F [Example 80, 7-(2-Chloro-6-fluorophenethoxy)-3-(cyclopropylmethyl)-8-(trifluoromethyl)-[1,2,4]triazolo[4,3-a]pyridine] | 0.4 |
| Cc1cccc(COc2ccn3c(CC4CC4)nnc3c2Cl)c1 [Example 67, 8-Chloro-3-(cyclopropylmethyl)-7-(3-methylbenzyloxy)-[1,2,4]triazolo[4,3-a]pyridine] | 55 |
| Fc1ccc([C@H]2C[C@H](Oc3ccn4c(C5CC5(F)F)nnc4c3C(F)(F)F)C2)cc1 (mixture of isomers) [Example 98, (±)-3-(2,2-Difluorocyclopropyl)-7-((1r,3r)-3-(4-fluorophenyl)cyclobutoxy)-8-(trifluoromethyl)-[1,2,4]triazolo[4,3-a]pyridine] | 5.1 |
| Fc1cc(F)cc(C2(COc3ccn4c(CC5CC5)nnc4c3C(F)(F)F)CC2)c1 [Example 55, 3-(Cyclopropylmethyl)-7-((1-(3,5-difluorophenyl)cyclopropyl)methoxy)-8-(trifluoromethyl)-[1,2,4]triazolo[4,3-a]pyridine] | 20 |
| Clc1cc(COc2ccn3c(CC4CC4)nnc3c2Cl)nc(Cl)n1 [Example 82, 8-Chloro-3-(cyclopropylmethyl)-7-((2,6-dichloropyrimidin-4-yl)methoxy)-[1,2,4]triazolo[4,3-a]pyridine] | 20 |
| COc1ccc(COc2ccn3c(CC4CC4)nnc3c2Cl)cc1 [Example 70, 8-Chloro-3-(cyclopropylmethyl)-7-(4-methoxybenzyloxy)-[1,2,4]triazolo[4,3-a]pyridine] | 140 |
| CC(C)(COc1ccn2c(CC(F)(F)F)nnc2c1C(F)(F)F)Oc1ccc(F)cc1 [Example 11, 7-(2-(4-Fluorophenoxy)-2-methylpropoxy)-3-(2,2,2-trifluoroethyl)-8-(trifluoromethyl)-[1,2,4]triazolo[4,3-a]pyridine] | 18 |
